Data as given in patent US20260083134A1, “MEANS AND METHODS FOR CONTROLLING PATHOGENS AND PESTS IN PLANTS” (APHEA.BIO NV, priority 2020, published 2026).

Assays:
Assay type in all cases: cell-based
Fusarium graminearum = conditions: compound identified in active HPLC fraction; active when halo diameter superior to 5 mm
Puccinia striiformis = Puccinia striiformis liquid-based screening assay of extract fractions; conditions: compound identified in active HPLC fraction; active when percentage of inhibition superior to 50%
Zymoseptoria tritici = tested on: Zymoseptoria tritici

Compound	Active against: (Fusarium graminearum)	Active against: (Puccinia striiformis)	Active against: (Zymoseptoria tritici)
CCCCCCCCCCCCCC(=O)NCCC[N+](C)(C)CC(=O)[O-] [N-Myristylamidopropyl-N,N-dimethylbetaine]	F. graminearum	P. striiformis	Z. tritici
C[C@@H]1C/C=C/C=C/C=C/C=C/[C@H](O[C@@H]2O[C@H](C)[C@@H](O)[C@H](N)[C@@H]2O)C[C@@H]2O[C@](O)(C[C@@H](O)C[C@H]3O[C@@H]3/C=C/C(=O)O1)C[C@H](O)[C@H]2C(=O)O [Pimaricin/Natamycin, Pimaricin, reference compound]	F. graminearum	P. striiformis	Z. tritici
C=C/C(C)=C/[C@H](C)C(=O)C[C@H](O)CC1CC(=O)NC(=O)C1 [Streptimidone]	F. graminearum	P. striiformis	Z. tritici
Albofungin	F. graminearum	P. striiformis	Z. tritici
Enactin Ia/Ib	F. graminearum	P. striiformis	Z. tritici
Lauramidopropyl betaine	F. graminearum	P. striiformis	Z. tritici
